Key:
[1] = tested on: P. falciparum NF54 liver stage parasites; assay: P. falciparum NF54 schizont development in primary human hepatocytes; format: cell-based; settings: Plasmodium falciparum, NF54, Hepatocyte, 96 h
[2] = tested on: P. falciparum female gametes; assay: Dual gamete formation assay (female); format: cell-based; settings: Plasmodium falciparum
Procedure: 604 Activity against transmissible stages of P. falciparum
605 Activity against male gametes was assessed using the dual gamete formation assay (PfDGFA)(32).
606 Compounds were incubated with mature stage V gametocytes ([…], kind gift from Professor Chris Janse
607 at Leiden University Medical Center (LUMC), the Netherlands) for 48 hours in 384 well plates before
608 gamete formation was triggered by a drop in temperature and addition of xanthurenic acid. Male gamete
609 exflagellation was recorded and quantified by automated microscopy. The ability of female gametes to
611 Multiple data sets using different gametocyte cultures were collected on each of two separate days.
613 Activity against exoerythrocytic stages
614 Primary human hepatocytes (H1500.H15B+ Lot No. HC10-10 Cryopreserved human hepatocytes)
615 were cultured for 2 days and then overlaid with P. falciparum NF54 sporozoites and compounds.
616 Supernatant was refreshed daily with fresh compounds.

HsYRS = target: T1, HsYRS (Homo sapiens, UniProt P54577); assay: Differential scanning fluorimetry, HsYRS; format: binding; settings: in the presence of ML901 plus substrates
T1 construct: made in house; host or cells: E. coli BL21(DE3), pET-11a
T1 sequence (P54577 1-364): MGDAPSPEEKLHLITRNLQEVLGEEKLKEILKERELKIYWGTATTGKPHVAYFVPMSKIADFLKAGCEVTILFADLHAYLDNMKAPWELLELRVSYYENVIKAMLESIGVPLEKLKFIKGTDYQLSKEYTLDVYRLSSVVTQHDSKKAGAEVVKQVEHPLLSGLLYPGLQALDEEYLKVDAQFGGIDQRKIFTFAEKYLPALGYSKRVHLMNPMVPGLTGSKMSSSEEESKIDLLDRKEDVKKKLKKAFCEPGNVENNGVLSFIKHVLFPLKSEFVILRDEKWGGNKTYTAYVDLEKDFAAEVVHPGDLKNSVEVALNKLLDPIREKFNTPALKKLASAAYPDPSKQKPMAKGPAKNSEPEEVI
Procedure: This DNA template and its complementary strand were custom-synthesized by Sigma-
810 (HiScribe™ T7 Quick High Yield RNA Synthesis Kit, NEB). On the following day, the reaction mixture
820 was sealed and analysed using StepOnePlus Real-Time PCR system (Applied Biosystems). The samples
The thermal unfolding curve was plotted
The melting temperature (Tm), defined as the
Reactions were conducted in 50 mM Tris-
Reactions were conducted in 50 mM Tris-HCL, pH 7.6,

[3] = tested on: P. falciparum Pf3D70087/N9; assay: Therapeutic efficacy in SCID mouse P. falciparum model; format: in vivo, Plasmodium falciparum; settings: single dose 50 mg/kg i.p.
From the text: 589 by genomic sequencing and were routinely tested for mycoplasma contamination using MycoAlert™
590 Mycoplasma Detection Kit (Lonza, Capsugel Australia).
592 E1-E2 Transthiolation Assays
593 An Homogeneous Time-Resolved Fluorescence (HTRF) enzyme assay was employed to evaluate
594 compound activity against ATG7 as previously described (11). In this assay, a Flag-tagged ATG8 homolog
595 (GABA type A receptor-associated protein; GABARAP) is activated by ATG7 and then transthiolated to a
596 GST-tagged E2 (ATG3). The product of the enzyme reaction, Flag-GABARAP-ATG3-GST, is quantified
597 by measuring FRET between Europium-Cryptate labelled monoclonal anti-Flag M2 (CisBio International,
598 Cat# 61FG2KLB) and PHYCOLINK goat anti-GST allophycocyanin (Prozyme, PJ252p1). The activation
599 and transthiolation of ubiquitin by Ubiquitin Activating Enzyme, activation and transthiolation of NEDD8 […]
605 Activity against male gametes was assessed using the dual gamete formation assay (PfDGFA)(32). […]
609 exflagellation was recorded and quantified by automated microscopy. […]
610 express Pfs25 on their surface after 24 h at 28°C was assessed by single-image fluorescence microscopy. […]
624 falciparum (Pf3D70087/N9) on day 0. The antimalarial efficacy was assessed following administration (i.p.) […]
638 precipitated with acetonitrile and the remaining compound was assessed by LC-MS/MS in the selected reaction […]

Nc1ncnc2c1c(OC(F)F)nn2[C@@H]1O[C@H](COS(N)(=O)=O)[C@@H](O)[C@H]1O [ML901]
IC50 [1]: 13 ± 5 nM
IC50 ([2]; 48 h incubation with stage V gametocytes): 4700 ± 300 nM
inhibition at 25 µM ([2]; at 25 µM): 81%
thermal stabilization of HsYRS (HsYRS): not stabilized
effect on parasitemia ([3]; SCID mice engrafted with P. falciparum infected human RBCs): reduction of parasitemia to baseline
toxicity ([3]; SCID mice): no evidence of toxicity

From publication PMC7613620, “Reaction hijacking of tyrosine tRNA synthetase as a whole-of-life-cycle antimalarial strategy” (Science (New York, N.Y.), 2022)
